Measured values from US9079905B2, “Compounds for the treatment of CNS disorders” (Boehringer Ingelheim International GmbH, priority 2008, dated 2015).

Biological target: T1, human PDE9A2 (Homo sapiens, UniProt O76083)
T1 construct: made in house; host or cells: Sf9 insect cells (infected; crude lysate used as enzyme source)
Test: PDE9A2 enzymatic activity assay (scintillation proximity assay)
Format: biochemical
Conditions: for IC50: specific IC50 value is within the given range
Experimental: The PDE9A2 enzymatic activity assay was run as scintillation proximity assay (SPA), in general according to the protocol of the manufacturer (Amersham Biosciences, product number: TRKQ 7100).
As enzyme source, lysate (PBS with 1% Triton X-100 supplemented with protease inhibitors, cell debris removed by centrifugation at 13.000 rpm for 30 min) of SF 9 cell expressing the human PDE9A2 was used. The total protein amount included in the assay varied upon infection and production efficacy of the SF9 cells and lay in the range of 0.1-100 ng.
In general, the assay conditions were as follows: • total assay volume: 40 microliter • protein amount: 0.1-50 ng • substrate concentration (cGMP): 20 nanomolar; ˜1 mCi/1 • incubation time: 60 min at room temperature • final DMSO concentration: 0.2-1
The assays were run in 384-well format. The test reagents as well as the enzyme and the substrate were diluted in assay buffer. The assay buffer contained 50 mM Tris, 8.3 mM MgCl2, 1.7 mM EGTA, 0.1% BSA, 0.05% Tween 20; the pH of assay buffer was adjusted to 7.5. The reaction was stopped by applying a PDE9 specific inhibitor (e.g. compounds according to WO04099210 or WO04099211) in excess.
The activity of the positive control (minus the negative control=background) is set to 100% and activity in the presence of test compound is expressed relative to these 100%. Within this setting, an inhibition above 100% might be possible due to the nature of the variation of the positive control within the assay. In the following inhibition of PDE 9A2 is presented for a concentration at 10 μM, if not indicated otherwise.
IC50 can be calculated with GraphPadPrism or other suited software setting the positive control as 100 and the negative control as 0. For calculation of IC50 dilutions of the test compounds (substrates) are to be selected and tested following the aforementioned protocol.

[1] = read-out: % Inhibition of PDE 9A2

T1 sequence (O76083 1-533 isoform O76083-2): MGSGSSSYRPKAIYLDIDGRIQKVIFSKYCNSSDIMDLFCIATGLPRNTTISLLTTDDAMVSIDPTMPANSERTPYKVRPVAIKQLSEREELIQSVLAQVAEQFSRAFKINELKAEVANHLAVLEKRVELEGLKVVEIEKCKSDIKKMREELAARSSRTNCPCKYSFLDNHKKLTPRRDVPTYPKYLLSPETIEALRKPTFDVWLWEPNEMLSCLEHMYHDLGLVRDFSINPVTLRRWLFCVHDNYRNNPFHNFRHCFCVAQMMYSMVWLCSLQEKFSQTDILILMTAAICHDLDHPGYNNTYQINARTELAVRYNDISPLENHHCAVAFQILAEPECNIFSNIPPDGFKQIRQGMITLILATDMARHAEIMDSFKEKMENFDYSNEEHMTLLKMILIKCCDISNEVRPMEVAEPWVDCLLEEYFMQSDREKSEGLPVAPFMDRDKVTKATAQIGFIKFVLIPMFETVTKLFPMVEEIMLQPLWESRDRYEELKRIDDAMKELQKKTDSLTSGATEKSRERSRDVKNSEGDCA

| inhibition at 10 µM [1] [%] | IC50 [nM] | inhibition at 1 µM (at 1 μM, read-out: % Inhibition of PDE 9A2) [%] | SMILES |
| --- | --- | --- | --- |
| 97 | 1 to 100 |  | COc1cccc(Cl)c1Cc1nc2c(cnn2C2CCC(F)(F)CC2)c(=O)[nH]1 [Example 37] |
| 85 | 101 to 1500 |  | O=C(O)Cc1ccccc1Cc1nc2c(cnn2C2CCC(F)(F)CC2)c(=O)[nH]1 [Example 38] |
| 84 | 101 to 1500 |  | CC(Cc1nc2c(cnn2C2CCC(F)(F)CC2)c(=O)[nH]1)C(=O)N1CCCCC1 (centres unmarked) [Example 39] |
| 92 | 101 to 1500 |  | O=c1[nH]c(Cc2ccc(F)cc2Br)nc2c1cnn2C1CCC(F)(F)CC1 [Example 44] |
| 97 | 1 to 100 |  | O=c1[nH]c(Cc2cc(F)ccc2Br)nc2c1cnn2C1CCC(F)(F)CC1 [Example 45] |
| 98 | 1 to 100 |  | O=c1[nH]c(Cc2ncccc2Br)nc2c1cnn2C1CCC(F)(F)CC1 [Example 46] |
| 95 | 1 to 100 |  | COc1ccccc1Cc1nc2c(cnn2C2CCC(F)(F)CC2)c(=O)[nH]1 [Example 48-3] |
| 99 | 1 to 100 |  | COc1ccc(F)cc1Cc1nc2c(cnn2C2CCC(F)(F)CC2)c(=O)[nH]1 [Example 48-4] |
| 100 | 1 to 100 |  | COc1cncc(-c2ccccc2Cc2nc3c(cnn3C3CCC(F)(F)CC3)c(=O)[nH]2)c1 [Example 53] |
| 102 | 1 to 100 |  | N#Cc1ccc(-c2ccccc2Cc2nc3c(cnn3C3CCC(F)(F)CC3)c(=O)[nH]2)cn1 [Example 54] |
| 100 | 1 to 100 |  | COc1cc(-c2ccccc2Cc2nc3c(cnn3C3CCC(F)(F)CC3)c(=O)[nH]2)ccn1 [Example 55] |
| 99 | 1 to 100 |  | COc1ccc(-c2ccccc2Cc2nc3c(cnn3C3CCC(F)(F)CC3)c(=O)[nH]2)cn1 [Example 56] |
| 101 | 1 to 100 |  | N#Cc1ccc(-c2ccc(F)cc2Cc2nc3c(cnn3C3CCC(F)(F)CC3)c(=O)[nH]2)cn1 [Example 57] |
| 101 | 1 to 100 |  | COc1cncc(-c2ccc(F)cc2Cc2nc3c(cnn3C3CCC(F)(F)CC3)c(=O)[nH]2)c1 [Example 58] |
| 95 | 101 to 1500 |  | COc1cc(-c2cc(F)ccc2Cc2nc3c(cnn3C3CCC(F)(F)CC3)c(=O)[nH]2)ccn1 [Example 59] |
| 99 | 1 to 100 |  | NC(=O)c1ccc(-c2ccc(F)cc2Cc2nc3c(cnn3C3CCC(F)(F)CC3)c(=O)[nH]2)cn1 [Example 61] |
| 100 | 1 to 100 |  | NC(=O)c1ccc(-c2cc(F)ccc2Cc2nc3c(cnn3C3CCC(F)(F)CC3)c(=O)[nH]2)cn1 [Example 62] |
| 93 | 101 to 1500 |  | N#Cc1ccc(-c2cc(F)ccc2Cc2nc3c(cnn3C3CCC(F)(F)CC3)c(=O)[nH]2)cn1 [Example 63] |
| 97 | 1 to 100 |  | COc1cc(-c2ccc(F)cc2Cc2nc3c(cnn3C3CCC(F)(F)CC3)c(=O)[nH]2)ccn1 [Example 64] |
| 101 | 1 to 100 |  | COc1ccc(-c2ccc(F)cc2Cc2nc3c(cnn3C3CCC(F)(F)CC3)c(=O)[nH]2)cn1 [Example 65] |
| 100 | 1 to 100 |  | O=c1[nH]c(Cc2cc(F)ccc2-c2cccnc2)nc2c1cnn2C1CCC(F)(F)CC1 [Example 66] |
| 99 | 1 to 100 |  | COc1cncc(-c2cc(F)ccc2Cc2nc3c(cnn3C3CCC(F)(F)CC3)c(=O)[nH]2)c1 [Example 67] |
| 96 | 101 to 1500 |  | COc1ccc(-c2cc(F)ccc2Cc2nc3c(cnn3C3CCC(F)(F)CC3)c(=O)[nH]2)cc1 [Example 68] |
| 97 | 101 to 1500 |  | COc1ccc(-c2cc(F)ccc2Cc2nc3c(cnn3C3CCC(F)(F)CC3)c(=O)[nH]2)cn1 [Example 69] |
| 100 | 1 to 100 |  | O=c1[nH]c(Cc2cc(F)ccc2-c2ccncc2)nc2c1cnn2C1CCC(F)(F)CC1 [Example 70] |
| 98 | 1 to 100 |  | O=c1[nH]c(Cc2ccc(F)cc2-c2cccnc2)nc2c1cnn2C1CCC(F)(F)CC1 [Example 71] |
| 98 | 1 to 100 |  | Cn1nccc1-c1ccc(F)cc1Cc1nc2c(cnn2C2CCC(F)(F)CC2)c(=O)[nH]1 [Example 72-2] |

| inhibition at 10 µM [1] [%] | IC50 [nM] | inhibition at 1 µM (at 1 μM, read-out: % Inhibition of PDE 9A2) [%] | SMILES |
| --- | --- | --- | --- |
| 98 | 1 to 100 |  | Cn1cc(-c2ccc(F)cc2Cc2nc3c(cnn3C3CCC(F)(F)CC3)c(=O)[nH]2)cn1 [Example 72-3] |
| 101 | 1 to 100 |  | O=c1[nH]c(Cc2cc(F)ccc2-c2ccnc(F)c2)nc2c1cnn2C1CCC(F)(F)CC1 [Example 72-4] |
| 99 | 1 to 100 |  | COc1ccc(-c2ccc(F)cc2Cc2nc3c(cnn3C3CCC(F)(F)CC3)c(=O)[nH]2)cc1 [Example 72-5] |
|  | 1 to 100 | 96 | N#Cc1ccc(-c2ccc(F)cc2Cc2nc3c(cnn3C3CCC(F)(F)CC3)c(=O)[nH]2)cc1 [Example 72-6] |
| 100 | 1 to 100 |  | O=c1[nH]c(Cc2cc(F)ccc2-c2ccc(F)nc2)nc2c1cnn2C1CCC(F)(F)CC1 [Example 72-7] |
| 98 | 1 to 100 |  | COc1ncccc1-c1ccc(F)cc1Cc1nc2c(cnn2C2CCC(F)(F)CC2)c(=O)[nH]1 [Example 72-8] |
| 100 | 1 to 100 |  | O=c1[nH]c(Cc2cc(F)ccc2-c2cncc(F)c2)nc2c1cnn2C1CCC(F)(F)CC1 [Example 72-9] |
| 97 | 101 to 1500 |  | O=c1[nH]c(Cc2ccc(F)cc2-c2ccncc2)nc2c1cnn2C1CCC(F)(F)CC1 [Example 72] |
| 98 | 1 to 100 |  | Cc1ccc(-c2ccccc2Cc2nc3c(cnn3C3CCC(F)(F)CC3)c(=O)[nH]2)cn1 [Example 73] |
| 98 | 1 to 100 |  | O=c1[nH]c(Cc2ccccc2-c2ccnc(F)c2)nc2c1cnn2C1CCC(F)(F)CC1 [Example 74] |
| 101 | 1 to 100 |  | O=c1[nH]c(Cc2ccccc2-c2ccc(N3CCOCC3)nc2)nc2c1cnn2C1CCC(F)(F)CC1 [Example 75] |
| 99 | 1 to 100 |  | O=c1[nH]c(Cc2ccccc2-c2cncnc2)nc2c1cnn2C1CCC(F)(F)CC1 [Example 76] |
| 97 | 1 to 100 |  | O=c1[nH]c(Cc2ccccc2CCCN2CCOCC2)nc2c1cnn2C1CCC(F)(F)CC1 [Example 78] |
| 95 | 101 to 1500 |  | CN(C)C(=O)Cc1ccccc1Cc1nc2c(cnn2C2CCC(F)(F)CC2)c(=O)[nH]1 [Example 79] |
| 95 | 101 to 1500 |  | O=C(Cc1ccccc1Cc1nc2c(cnn2C2CCC(F)(F)CC2)c(=O)[nH]1)N1CCCCC1 [Example 81] |
| 91 | 101 to 1500 |  | O=C(Cc1ccccc1Cc1nc2c(cnn2C2CCC(F)(F)CC2)c(=O)[nH]1)N1CCOCC1 [Example 82] |
| 88 | 101 to 1500 |  | O=c1[nH]c(Cc2ccccc2CCO)nc2c1cnn2C1CCC(F)(F)CC1 [Example 83] |
| 81 | 101 to 1500 |  | COC(=O)Cc1ccccc1Cc1nc2c(cnn2C2CCC(F)(F)CC2)c(=O)[nH]1 [Example 84] |
| 98 | 1 to 100 |  | O=c1[nH]c(Cc2cc(F)ccc2-n2cccn2)nc2c1cnn2C1CCC(F)(F)CC1 [Example 89] |
| 97 | 1 to 100 |  | O=c1[nH]c(Cc2cc(F)ccc2-c2ccccn2)nc2c1cnn2C1CCC(F)(F)CC1 [Example 90] |
| 95 | 1 to 100 |  | O=c1[nH]c(Cc2ccccc2-c2ccccn2)nc2c1cnn2C1CCC(F)(F)CC1 [Example 91] |
| 94 | 1 to 100 |  | Cc1ccc(-c2ccccc2Cc2nc3c(cnn3C3CCC(F)(F)CC3)c(=O)[nH]2)o1 [Example 93] |
| 98 | 1 to 100 |  | Cn1cc(-c2cccnc2Cc2nc3c(cnn3C3CCC(F)(F)CC3)c(=O)[nH]2)cn1 [Example 94] |
| 111 | 1 to 100 |  | Cc1ncn(-c2ccccc2Cc2nc3c(cnn3C3CCC(F)(F)CC3)c(=O)[nH]2)n1 [Example 95-1] |
| 97 | 1 to 100 |  | O=c1[nH]c(Cc2ccccc2-n2cccn2)nc2c1cnn2C1CCC(F)(F)CC1 [Example 95] |
| 93 | 1 to 100 |  | O=c1[nH]c(Cc2ncccc2-n2cccn2)nc2c1cnn2C1CCC(F)(F)CC1 [Example 96] |
| 100 | 1 to 100 |  | Cc1nc(-c2ccccc2Cc2nc3c(cnn3C3CCC(F)(F)CC3)c(=O)[nH]2)no1 [Example 97] |

| SMILES | inhibition at 10 µM [1] [%] | IC50 [nM] | inhibition at 1 µM (at 1 μM, read-out: % Inhibition of PDE 9A2) [%] |
| --- | --- | --- | --- |
| CN1CCN(C(=O)Cc2ccccc2Cc2nc3c(cnn3C3CCC(F)(F)CC3)c(=O)[nH]2)CC1 [Example 80] | 91 | 101 to 1500 |  |
